“Also recorded” adds a separate entry of the source.
Assays:
[1] = test system: K channels; test: Ionic permeabilities of excitable membranes, voltage clamp in the Ranvier node; type: cell-based, frog; conditions: for Block of K-channels IC (M): Ranvier node of the frog, voltage clamp
[2] = test system: mice; test: Step-down test, scopolamine induced amnesia; type: in vivo
Method: (§1) Psychoneurotropic activity of the declared compounds and their influence on learning and memory were observed using unbred male (18-20 g) mice and 180-200 g) rats, held at standard conditions (room temperature 21°-22° C., 12-hours lighting schedule, food and water ad libitum).

[3] = test system: mice; test: Psychotropic activity test: motor activity; type: in vivo; conditions: intraperitoneally, dose 1/20 of LD
[4] = test system: mice; test: Psychotropic activity test: arecoline induced hyperkynesis; type: in vivo; conditions: intraperitoneally, dose 1/20 of LD
[5] = test system: rats; test: Passive avoidance test in normal rats, 50% acquisition; type: in vivo; conditions: for change in vivo at 0.1 mg/kg: Rattus norvegicus, ip, 20 min, read-out: Increase of the number of correct trails (% to control). Passive avoidance test (rats); for change in vivo at 0.1 mg/kg / Increase of the number of correct trails (% to control). Passive avoidance test (rats): rats, 0.1 mg/kg i.p. 20 min before training, piracetam 250 mg/kg 60 min before training; for Performance of normal rats in passive avoidance test / Improving learning and memory compared with amiridine and piracetam: normal rats; for Improving learning and memory compared with amiridine and piracetam: passive avoidance test
Method: as §1
The influence of drugs on reflex conditioning in rats was studied by the passive avoidance test in conditions of 50% acquisition. The effect of the compound was estimated by the increase of the relative number of learned animals with respect to that of control group. […] The other reference drug--noothropic agent piracetam--was given in the dose 250 mg/kg 60 min before training. Amnestic syndrome was stimulated by 20 days application of Sc at the daily dose of 1 mg/kg intraperitoneally. […] The passive avoidance test was performed within 24 hours after the last application of test preparations.

[6] = in vivo; conditions: intraperitoneal injection, Table 5; for LD50: in vivo, ip, read-out: LD50 (mg/kg) by Kerber
Method: as §1
Acute toxicity was studied by the method of Kerber with intra peritoneal drug injection.

[7] = biological target: T1, Acetylcholinesterase, enzyme from human erythrocytes (Homo sapiens, UniProt P22303); test: Acetylcholinesterase inhibition, spectrophotometric technique of Ellman; type: biochemical; conditions: Acetylcholinesterase inhibition IC50 (M), enzyme from human erythrocytes; Table 5
T1 construct: on the enzyme from human erythrocytes; from tissue; host or cells: human erythrocytes
Method: Acetylcholinesterase inhibition under the action of preparations was assessed by the spectrophotometric technique of Ellman on the enzyme from human erythrocytes.

[8] = test system: rat adipocytes; test: Lipid composition of adipocytes after incubation with compounds; type: cell-based; conditions: for FFA/TG in adipocytes / PL/CL in adipocytes / PL/TG in adipocytes: cells, Table 11; for FFAc/FFAm / PLc/PLm: distribution between cells and incubation medium, Table 13
Method: (§2) Lipid regulative activity of the declared compounds--derivatives of 9-amino acridine--were evaluated in vitro[…] using rat adipocytes. Adipocytes were separated from adipose tissue of testis appendages of adult male rats. Lipid composition analysis was performed by the method of thin-layer chromatography.
(§3) Quantitative analysis of phospholipids (PL), mono- and diacylglycerides (MDG), triacylglycerides (TG), free fatty acids (FFA), free cholesterol (FCL), and methyl esters of fatty acids (MEFA) was performed by the method of spectrophotometry.

[9] = test system: rat adipocytes; test: Lipid content in incubation medium after incubation of adipocytes; type: cell-based; conditions: incubation medium; Table 12
Method: as §2, §3

T1 sequence (P22303-2 with tags, fused parts or gaps limits assumed): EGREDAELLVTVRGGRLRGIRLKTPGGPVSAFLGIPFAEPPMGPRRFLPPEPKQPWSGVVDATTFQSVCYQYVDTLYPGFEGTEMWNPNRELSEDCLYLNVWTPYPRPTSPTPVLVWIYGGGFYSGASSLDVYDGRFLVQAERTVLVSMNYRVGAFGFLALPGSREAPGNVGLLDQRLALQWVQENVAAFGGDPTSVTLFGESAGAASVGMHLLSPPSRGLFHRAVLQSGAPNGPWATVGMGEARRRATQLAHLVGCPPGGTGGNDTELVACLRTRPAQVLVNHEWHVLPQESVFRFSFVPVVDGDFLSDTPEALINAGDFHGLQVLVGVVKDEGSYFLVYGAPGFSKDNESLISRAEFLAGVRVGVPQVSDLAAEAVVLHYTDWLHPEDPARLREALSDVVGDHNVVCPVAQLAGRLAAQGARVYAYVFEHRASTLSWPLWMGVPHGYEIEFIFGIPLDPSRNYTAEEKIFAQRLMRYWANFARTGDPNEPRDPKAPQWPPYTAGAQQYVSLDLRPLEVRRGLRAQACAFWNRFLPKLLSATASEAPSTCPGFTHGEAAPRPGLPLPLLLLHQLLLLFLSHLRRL

SMILES	Antiamnestic activity in Step-down test (% of mice with latency > cut off) [2]	Motor activity increment (% to control) [3]	Increase of duration of arecoline induced hyperkynesis (% to control) [4]	change in vivo at 0.1 mg/kg [5]	LD50 [6]	IC50 [7]	further results
CC1(C)CC(=O)c2c(nc3ccccc3c2N)C1 [IVb]	0 % of mice	0 % to control	33 % to control	30%	70 ± 4.3 mg/kg	3.5e-06 M	The shift of activation region of K channels: substance lowest concentrations in M producing measureable shift of 1-2 mV [1]: no effect; Block of K-channels IC (M) [1]: no effect
CC1(C)C=Cc2c(nc3ccccc3c2N)C1 [VIIb]	25 % of mice	41 % to control	25 % to control	40%	37.5 ± 0.9 mg/kg	7.5e-08 M	Block of K-channels IC (M) [1]: no effect; Antiamnestic activity in Step-down test [2]: pronounced antiatonestic activity, comparable with that of amiridine and tacrine; Performance of normal rats in passive avoidance test [5]: statistically significantly improved performance of normal rats
CCCCNc1c2c(nc3ccccc13)CC(C)(C)C=C2 [VIIc]	–	20 % to control	15 % to control	25%	33.3 ± 4.4 mg/kg	6e-07 M	–
CC1(C)C=Cc2c(nc3ccccc3c2NCc2ccc(Cl)cc2)C1 [VIId]	20 % of mice	28 % to control	15 % to control	60%	126 ± 8.9 mg/kg	6e-09 M	Change of lipid composition in adipocytes [8]: significaut lipolytic effect; also recorded: significant lipolytic effect; Lipid-regulative effect compared with probucol [8]: not inferior; Potency of effect on lipid composition of adipocytes [8]: most potent effect on lipid composition of adipocytes; FFA/TG in adipocytes [8]: 1.16; PL/CL in adipocytes [8]: 0.69; PL/TG in adipocytes [8]: 0.73; FFAc/FFAm [8]: 1.07; PLc/PLm [8]: 0.97; Performance of normal rats in passive avoidance test [5]: statistically significantly improved performance of normal rats; Improving learning and memory compared with amiridine and piracetam [5]: as effective in improving learning and memory as amiridine and piracetam; FFA/TG in incubation medium [9]: 0.96; PL/CL in incubation medium [9]: 0.75; PL/TG in incubation medium [9]: 0.67
CC1(C)C=Cc2c(nc3ccccc3c2NCc2ccccc2)C1 [VIIi]	25 % of mice	20 % to control	15 % to control	–	–	–	Antiamnestic activity in Step-down test [2]: pronounced antiatonestic activity, comparable with that of amiridine and tacrine; Performance of normal rats in passive avoidance test [5]: statistically significantly improved performance of normal rats; Increase of the number of correct trails (% to control). Passive avoidance test (rats) [5]: 35 % to control; LD50 (mg/kg) by Kerber [6]: 500 mg/kg
CC1(C)C=Cc2c(nc3ccccc3c2NCc2ccccc2)C1 [VIIj]	–	–	–	–	–	–	FFA/TG in adipocytes [8]: 1.00; PL/CL in adipocytes [8]: 0.83; PL/TG in adipocytes [8]: 0.86; FFAc/FFAm [8]: 0.93; PLc/PLm [8]: 1.08; FFA/TG in incubation medium [9]: 1.07; PL/CL in incubation medium [9]: 0.89; PL/TG in incubation medium [9]: 0.81
CC1(C)C=Cc2c(nc3ccccc3c2NCc2ccccc2)C1 [VIIk]	–	20 % to control	20 % to control	–	–	–	FFA/TG in adipocytes [8]: 0.93; PL/CL in adipocytes [8]: 0.61; PL/TG in adipocytes [8]: 0.58; FFAc/FFAm [8]: 0.95; PLc/PLm [8]: 0.78; Increase of the number of correct trails (% to control). Passive avoidance test (rats) [5]: 25 % to control; LD50 (mg/kg) by Kerber [6]: 90.5 ± 8. mg/kg; FFA/TG in incubation medium [9]: 1.10; PL/CL in incubation medium [9]: 0.96; PL/TG in incubation medium [9]: 0.84
CC1(C)C=Cc2c(nc3ccccc3c2NCc2ccccc2)C1 [VIIl]	–	10 % to control	15 % to control	–	–	–	FFA/TG in adipocytes [8]: 1.00; PL/CL in adipocytes [8]: 0.75; PL/TG in adipocytes [8]: 0.78; FFAc/FFAm [8]: 0.96; PLc/PLm [8]: 0.97; Increase of the number of correct trails (% to control). Passive avoidance test (rats) [5]: 40 % to control; LD50 (mg/kg) by Kerber [6]: 116.7 ± 10.9 mg/kg; FFA/TG in incubation medium [9]: 1.00; PL/CL in incubation medium [9]: 0.91; PL/TG in incubation medium [9]: 0.77
CC1(C)Cc2nc3ccccc3c(N)c2C(O)C1 (stereo not shown) [VIb]	0 % of mice	40 % to control	66 % to control	20%	63.3 ± 8.8 mg/kg	1.2e-06 M	–
CC1(C)Cc2nc3ccccc3c(NCc3ccccc3)c2C(O)C1 (stereo not shown) [VIe, 9-benzylamino-3,3-dimethyl-1,2,3,4-tetrahydroacridine-1-ol]	–	64 % to control	15 % to control	0%	50 ± 8.6 mg/kg	1.3e-06 M	–
CC1(C)Cc2nc3ccccc3c(NCc3ccc(Cl)cc3)c2C(O)C1 (stereo not shown) [VIg]	–	40 % to control	36 % to control	0%	80 ± 2.7 mg/kg	3e-06 M	–
CCCCNc1c2c(nc3ccccc13)CC(C)(C)CC2=O [Vaa]	25 % of mice	26 % to control	25 % to control	–	–	–	Antiamnestic activity in Step-down test [2]: pronounced antiatonestic activity, comparable with that of amiridine and tacrine; FFA/TG in adipocytes [8]: 0.94; PL/CL in adipocytes [8]: 0.63; PL/TG in adipocytes [8]: 0.58; FFAc/FFAm [8]: 1.01; PLc/PLm [8]: 1.04; Increase of the number of correct trails (% to control). Passive avoidance test (rats) [5]: 15 % to control; LD50 (mg/kg) by Kerber [6]: 650.0 ± 11.3 mg/kg; FFA/TG in incubation medium [9]: 0.92; PL/CL in incubation medium [9]: 0.71; PL/TG in incubation medium [9]: 0.55
Cc1ccc(CNc2c3c(nc4ccccc24)CC(C)(C)CC3=O)c(C)c1 [Vd]	20 % of mice	90 % to control	0 % to control	50%	> 1000 mg/kg	1e-05 M	Performance of normal rats in passive avoidance test [5]: statistically significantly improved performance of normal rats; Improving learning and memory compared with amiridine and piracetam [5]: as effective in improving learning and memory as amiridine and piracetam
CNc1c2c(nc3ccccc13)CC(C)(C)CC2=O [Vh]	–	40 % to control	20 % to control	0%	65.8 ± 4.8 mg/kg	4e-07 M	–
CCNc1c2c(nc3ccccc13)CC(C)(C)CC2=O [Vj]	–	59 % to control	20 % to control	0%	73.3 ± 8.6 mg/kg	1.7e-06 M	–
CCCNc1c2c(nc3ccccc13)CC(C)(C)CC2=O [Vl]	–	74 % to control	30 % to control	0%	283 ± 35.7 mg/kg	3e-06 M	–
CC(C)Nc1c2c(nc3ccccc13)CC(C)(C)CC2=O [Vn]	–	76 % to control	0 % to control	0%	70.2 ± 7.3 mg/kg	6e-06 M	–
CC(C)CNc1c2c(nc3ccccc13)CC(C)(C)CC2=O [Vq]	–	75 % to control	0 % to control	0%	158 ± 21.9 mg/kg	2e-06 M	–
CCN(CC)CCNc1c2c(nc3ccccc13)CC(C)(C)CC2=O [Vr]	–	0 % to control	26 % to control	0%	135 ± 8.2 mg/kg	5e-05 M	–
